# Patent US5157052A, “Method for inhibiting IgE production” (priority 1990, dated 1992)
# Entries after “also recorded” stand apart in the source; their conditions may differ.
# Columns and labels:
# [1] = system: leukocyte membrane proteins; assay: Cell surface density or distribution of leukocyte membrane proteins, overall; assay type: in vivo, mouse (Balb/c female); conditions: unstimulated mice, 20 μg
# IgE [2] = assay: Serum IgE response induced by FF1-4D5 + H∂A1 anti-IgD antibodies (ELISA, Assay A / Assay F); assay type: in vivo, mouse (Balb/c female)
# Experimental: Mouse hybridoma cells expressing either FF1-4D5 antibody or H∂A1 antibody are thawed, established in culture, and incubated in mice as ascite tumors. FF1-4D5 antibody is a mouse IgG2a monoclonal antibody of the b allotype that binds the Fd fragment of the ∂ chain of the a allotype IgD which activates β cells through antigen internalization and processing, promoting cognate interactions with antigen-specific T cells (D. K. Goroff et al., J. Immunol. 136: 2382 (1986)). H∂A1 antibody is a mouse IgG2b of the b allotype that binds the Fc fragment of the ∂ chain of the a allotype IgD which activates β cells through crosslinking IgD (I. M. Zitron and B. L. Clevinger, J. Exp. Med. 152: 1135 (1980)). Each antibody is purified from their respective ascites tumor fluid. […] Serum from the injected mice is recovered and the mean concentration of IgE determined.
# Serum levels of IgE are determined and IgE levels are shown to be inhibited in a dose dependent manner.
# (§1) ELISA (enzyme linked immunosorbant assay) measurements of IgE are as follows. About 5 μg of B1E3 antibody in 100 μl borate buffered saline (pH8.5) is added to wells of a NuncImmulon II 96 well plate (DiRuscio & Assoc., St. Louis, Mo.) at 37° C. for 90 minutes. The non-bound antibody is removed by flicking the plate. Unreacted sites on the plastic plate are blocked by adding about 200 μl of a 2% solution of newborn bovine serum (NBS) in PBS at 37° C. for 60 minutes. The standard IgE (or an unknown murine serum sample) is diluted to between about 4 ng/ml-256 ng/ml in Hanks-HS (20 mM Hepes, 2% NBS in Hanks Balanced Salt Solution, Gibco, Grand Island, N.Y.) or to 1/200 to 1/1000 in Hanks-HS respectively. 100 μl of standard (or unknown dilutions) are added in triplicate to the wells of the plate and allowed to absorb to B1E3 antibody at about 37° C. for 2-4 hours. The solution is removed by flicking the plate and each well is washed with about 0.5 ml 0.05% Tween 20-PBS 5 times. About 100 μl of biotinylated R1E4, called the primary antibody, diluted to 200 ng/ml is added to all wells and incubated at about 4° C. overnight. The solution is removed by flicking the plate and washed 5 times as described above. The developing reagent (Avidin and biotin-horse radish peroxidase) is incubated in 2% NBS in PBS at ambient temperature for 30 minutes, according to manufacturer's specifications (Vector Laboratories, Burlingame, Calif.). About 100 μl of developing reagent is added to each well and incubated at ambient temperature for 30 minutes. Colorimetric substrate for the developing reagent (ABTS peroxidase substrate system, KPL, Gaithersburg, Md.) is prepared by mixing equal volumes of solutions A and B and incubating at ambient temperature for 60 minutes. The developing reagent solution is removed by flicking the plate and washed 5 times as described above. About 100 μl of the mixture of substrates is added to each well and incubated at ambient temperature for 60 minutes. The optical density of each well is determined on a BioTek ELISA reader (Biotek Instruments, Inc., Burlington, Vermont) and the absorbance data transferred electronically to a DEC VAX mainframe computer. A standard curve is fitted to the IgE standard optical densities using straight line, linear regression statistical fits. IgE in the unknown serum samples is determined by comparing the optical density of the unknown to the standard curve and multiplying that number by the dilution of serum used in the assay.
# Stimulation of a transient serum IgE response in mouse with two monoclonal antibodies directed against IgD is carried out as follows.
# Mouse hybridoma cells expressing either FF1-4D5 antibody or H∂Al antibody are thawed, established in culture, and incubated in CB6 F1 female mice as an ascites tumor and each immunoglobulin is purified from the ascites fluid as described above. […]
# IgM = assay: Serum IgM in anti-IgD stimulated mice (two site sandwich ELISA, Assay E); assay type: in vivo, mouse (Balb/c female); conditions: 20 μg IP 3x daily days 3 and 4
# Experimental: Sera from mice treated with compounds in accordance with the method of the invention are analyzed for levels of IgG1, IgG2a, IgG3, and IgM.
# Measurement of mouse IgM by a two site sandwich ELISA is performed in substantial accordance with the teachings of Assay B except for the following changes. About 250 ng of rabbit anti-mouse IgM (Zymed Laboratories) is used to coat a NuncImmulon 96 well plate. The IgM standard is purchased from Southern Biotech. The standard curve is linear between 8-500 ng/ml. Serum containing IgM is diluted 1/4,000 to 1/60,000. About a 1/10,000 dilution of goat anti mouse IgM conjugated to horse radish peroxidase is used as a combined primary antibody and developing reagent. 100 μl is added to each well and the plate is incubated at about 4° C. overnight. The colorimetric substrate is prepared and used as described in Assay A.
# Two groups of 4 Balb/c female mice per group are injected with both 100 μg FF1-4D5 antibody and 100 μg H∂Al antibody. On day 3 and 4 the mice are injected with PBS (Group A) or 20 μg (±) methyl 11α,16-dihydroxy-16-ethyl-9-oxoprosta-5Z,13E-dien-1-oate (Group B) at 7 a.m., 1 p.m. and 7 p.m. in substantial accordance with the teaching of Example 13. On day -1, 7, 8, 9 and 11, 50-100 μl of serum is recovered and analyzed for IgE by Assay A and for IgM by Assay E. The results are shown in Table 6.
# Three groups of 5 Balb/c female mice per group are injected with both 100 μg FF1-4D5 antibody and 100 μg H∂A1 antibody on day 0. Group A is a control with no further treatment. On day 3 and 4, the mice are injected with 20 μg (±) methyl 11α,16-dihydroxy-4,4,16-trimethyl-9-oxoprosta-13E-en-1-oate (Group B) or 20 μg (±) methyl 11α,16-dihydroxy-16-methyl-9-oxoprosta-3,5Z,13E-trien-1-oate (Group C) as in Example 13. On day -1 and 8, […] of serum is recovered and analyzed for IgE, IgG1, IgG2a, IgG3 and IgM by Assays A, B, C, D and E, respectively.
# IgE [3] = assay: ED50 for inhibition of IgE calculated from the examples; assay type: in vivo, mouse; conditions: for ED50 IgE Inhibition: dose to achieve 50% inhibition of IgE
# Experimental: From the data in the above examples, the effective dose of each prostaglandin to achieve 50% inhibition of IgE (ED50) was calculated.
# [4] = Diarrheal effects in rats; conditions: rat, in vivo, po
# Experimental: (§2) Briefly, adult Charles River male rats weighing 210-230 g were individually housed and fasted with water available ad libitum for 24 hours prior to the test. The animals (N=6-12) received logarithmically graded prostaglandin doses orally. Immediately after administration, the animals were returned to their cages, and diarrhea, if any, was assessed on an all or none basis for 8 hours after drug treatment. The ED50 and relative potency values were calculated by the logistic method of Berkson.
# [5] = rat, in vivo
# Experimental: as §2
# IgE [6] = assay: In vitro IgE inhibition; assay type: cell-based
# IgE [7] = assay: Inhibition of de novo IgE synthesis after oral (intragastric) administration; assay type: in vivo, mouse (Balb/c female); conditions: for IgE ± SD: 20 μg intragastric TID days 3 and 4
# Experimental: as §1
# Three groups of 4 Balb/c female mice per group are injected with both 100 μg FF1-4D5 antibody and 100 μg H∂A1 antibody (Groups B, C, and D). Another group of 4 Balb/c female mice is injected with PBS alone, unstimulated control Group A. One of the stimulated group were not given any prostaglandin control Group B. On day 3 and 4, individual groups receive an intragastric feeding TID of 0.25 ml of 20 μg of (±) methyl 11α,16-dihydroxy-16-methyl-9-oxoprosta-5Z,13E-dien-1-oate (Group C) or 20 μg of prostaglandin E2 (Group D) dissolved in PBS.
# [8] = J. Pene et al., 1988; cited from earlier work
# [9] = day -1 baseline before treatment
# [10] = Table 9, 20 μg IP days 3 and 4, day 8 (control 3539)
# [11] = Table 9, 20 μg IP days 3 and 4, day -1 baseline before treatment
smiles,measurement,setting,value
"CCCCC(O)(CC)C/C=C/[C@H]1[C@H](O)CC(=O)[C@@H]1C/C=C\CCCC(=O)OC (mixture of isomers) [(±) methyl 11α,16-dihydroxy-16-ethyl-9-oxoprosta-5Z,13E-dien-1-oate]",cell surface density and distribution,[1],identical cell surface density and distribution as the control group
same,IgE production,"IgE [2]; 20 μg IP 3x daily days 3 and 4, Table 6",IgE production is fully inhibited
same,IgE ± SD,"IgE [2]; Table 6, 20 μg IP 3x daily days 3 and 4, day 7 (PBS 4545)",847 ± 67 ng/mL
same,IgE ± SD,"IgE [2]; Table 6, 20 μg IP 3x daily days 3 and 4, day 8 (PBS 11398)",1264 ± 173 ng/mL
same,IgE ± SD,"IgE [2]; Table 6, 20 μg IP 3x daily days 3 and 4, day 9 (PBS 7114)",1064 ± 106 ng/mL
same,IgE ± SD,"IgE [2]; Table 6, 20 μg IP 3x daily days 3 and 4, day 11 (PBS 1064)",808 ± 16 ng/mL
same,IgE ± SD,"IgE [2]; Table 6, 20 μg IP 3x daily days 3 and 4, day -1 baseline before treatment",< 800 ng/mL
same,IgM synthesis,IgM; Table 6,IgM synthesis is not affected
same,IgM ± SD,IgM; day 7 (PBS 1488),1858 ± 107 µg/mL
same,IgM ± SD,IgM; day 8 (PBS 1690),2569 ± 803 µg/mL
same,IgM ± SD,IgM; day 9 (PBS 1396),2104 ± 276 µg/mL
same,IgM ± SD,IgM; day 11 (PBS 548),725 ± 199 µg/mL
same,IgM ± SD,IgM; [9],272 ± 19 µg/mL
"CCCCCCC(C)(O)C/C=C/[C@H]1[C@H](O)CC(=O)[C@@H]1CCCCCCC(=O)OC (mixture of isomers) [(±) methyl-20-ethyl-11α,16-dihydroxy-16-methyl-9-oxoprost-13E-en-1-oate]",de novo IgE synthesis,"IgE [2]; 20 μg days 3 and 4, Example 24",inhibits de novo IgE synthesis
same,IgE ± SD,"IgE [2]; Table 13, 20 μg days 3 and 4, day 8 (control 3653)",< 800 ng/mL
same,IgE inhibition,IgE [2]; summary statement,excellent IgE inhibition
same,ED50 IgE Inhibition,IgE [3],1.0 μg/mouse/TID
same,TD50 at 8 h,[4],2.7 mg/kg
same,diarrhea side effects,[5],essentially free of detrimental diarrhea side effects
same,diarrhea side-effect,[5]; po,essentially free of the undesirable diarrhea side-effect
"CCCCC[C@H](O)/C=C/[C@H]1[C@H](O)CC(=O)[C@@H]1CCCCCCC(=O)O [prostaglandin E1, reference compound]",inhibition of de novo IgE synthesis in vivo,IgE [2]; 20 μg days 3 and 4,lack of inhibition
same,IgE ± SD,IgE [2]; [10],2958 ± 717 ng/mL
same,IgE ± SD,IgE [2]; [11],< 800 ng/mL
same,inhibition of IgE in vivo,IgE [2]; summary statement,only low inhibition in vivo
same,inhibition of IgE in vitro,IgE [6],exhibit inhibition of IgE in vitro
CCCCC[C@H](O)/C=C/[C@H]1[C@H](O)CC(=O)[C@@H]1C/C=C\CCCC(=O)O [prostaglandin E2],inhibition of de novo IgE synthesis after oral administration,IgE [7]; 20 μg intragastric TID,"ineffective; also recorded: inhibits IgE synthesis slightly, if at all"
same,IgE ± SD,"IgE [7]; day 8 (stimulated control 5792, unstimulated 1015)",3724 ± 1361 ng/mL
same,IgE ± SD,IgE [7]; day 10 (stimulated control 1498),1496 ± 219 ng/mL
same,IgE ± SD,IgE [7]; [9],1094 ± 107 ng/mL
same,immunosuppressive effects in vitro,[8],Immunosuppressive effects of prostaglandins in vitro has been demonstrated
same,inhibition of de novo IgE synthesis in vivo,IgE [2]; 20 μg days 3 and 4,lack of inhibition
same,IgE ± SD,IgE [2]; [10],3340 ± 384 ng/mL
same,IgE ± SD,IgE [2]; [11],897 ± 194 ng/mL
same,inhibition of IgE in vivo,IgE [2]; summary statement,only low inhibition in vivo
same,inhibition of IgE in vitro,IgE [6],exhibit inhibition of IgE in vitro
same,ED50 IgE Inhibition,IgE [3],> 45.0 μg/mouse/TID
same,dosage to achieve 50% inhibition of IgE,IgE [3]; text of Example 28,greater than 45 μg/mouse
